Laboratory results from US11945796B2, “Substituted pyridine derivatives as SARM1 inhibitors” (Nura Bio, Inc., priority 2020, dated 2024).
Like-named read-outs stand apart in the source and are kept apart here.

Target: T1, human SARM1(50-724) (Homo sapiens, UniProt Q6SZW1)
T1 construct: 40 nM human SARM1(50-724)
T1 sequence (Q6SZW1 50-724): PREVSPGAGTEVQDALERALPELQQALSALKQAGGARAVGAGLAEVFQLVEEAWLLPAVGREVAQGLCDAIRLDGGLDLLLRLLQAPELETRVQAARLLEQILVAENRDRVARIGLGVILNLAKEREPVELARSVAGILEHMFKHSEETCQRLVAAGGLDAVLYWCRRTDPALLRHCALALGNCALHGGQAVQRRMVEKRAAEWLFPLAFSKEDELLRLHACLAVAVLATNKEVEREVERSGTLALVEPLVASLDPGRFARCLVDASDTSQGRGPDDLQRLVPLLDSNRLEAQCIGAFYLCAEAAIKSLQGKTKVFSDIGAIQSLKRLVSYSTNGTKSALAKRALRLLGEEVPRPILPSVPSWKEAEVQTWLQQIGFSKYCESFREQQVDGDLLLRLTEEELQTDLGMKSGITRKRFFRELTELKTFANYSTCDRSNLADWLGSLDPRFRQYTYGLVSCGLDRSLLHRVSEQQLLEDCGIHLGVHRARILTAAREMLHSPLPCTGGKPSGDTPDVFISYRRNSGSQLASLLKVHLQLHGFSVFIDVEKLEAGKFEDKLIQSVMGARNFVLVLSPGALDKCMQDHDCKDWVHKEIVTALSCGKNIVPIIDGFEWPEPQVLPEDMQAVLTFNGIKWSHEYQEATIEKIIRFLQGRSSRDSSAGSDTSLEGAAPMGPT
Test: SARM1 NADase biochemical assay (HPLC peak areas of NAD and NAM)
Settings: for IC50: dose-response, 1:3 serial dilution from 100 μM, 40 nM SARM1, 0.3 mM NMN, 20 μM NAD, 60 min rt
Procedure: The reaction was incubated at room temperature for 60 minutes and quenched with 20 μL of 0.4% formic acid. […] Total run time for each sample was 4 minutes. […] Samples were run at a flow rate of 0.8 mL/min at 55° C. Peak areas of NAD and NAM were determined using OpenLAB CDS (Chem Station edition) software. For dose-response, the compound was diluted serially 1:3 in DMSO and added to the reaction starting at a final compound concentration of 100 μM in 1% DMSO.

[1] = 50 μM compound, NAD peak area, read-out: Avg NAD % inhibition at 50 μM
[2] = 50 μM compound, NAM peak area, read-out: Avg NAM % inhibition at 50 μM
[3] = read-out: Avg NAD % inhibition at 50 μM
[4] = read-out: Avg NAM % inhibition at 50 μM

inhibition at 50 µM [1]	inhibition at 50 µM [2]	Compound	IC50	other results
0 to 50%	0 to 50%	CNc1ccn(Cc2ccncc2)n1 [Example 86, N-Methyl-1-(pyridin-4-ylmethyl)-1H-pyrazol-3-amine]	–	–
0 to 50%	0 to 50%	O=S(=O)(Nc1ccn(Cc2ccncc2)n1)C(F)(F)F [Example 88, 1,1,1-Trifluoro-N-(1-(pyridin-4-ylmethyl)-1H-pyrazol-3-yl)methanesulfonamide]	–	–
0 to 50%	0 to 50%	c1cc(Cn2ccc(NCC3CC3)n2)ccn1 [Example 93, N-(Cyclopropylmethyl)-1-(pyridin-4-ylmethyl)-1H-pyrazol-3-amine]	–	–
0 to 50%	0 to 50%	CCCNc1ccn(Cc2ccncc2)n1 [Example 94, N-Propyl-1-(pyridin-4-ylmethyl)-1H-pyrazol-3-amine]	–	–
0 to 50%	0 to 50%	c1cc(Cn2ccc(NCC3CCC3)n2)ccn1 [Example 95, N-(Cyclobutylmethyl)-1-(pyridin-4-ylmethyl)-1H-pyrazol-3-amine]	–	–
0 to 50%	0 to 50%	c1cc(Cn2ccc(NC3CCC3)n2)ccn1 [Example 97, N-Cyclobutyl-1-(pyridin-4-ylmethyl)-1H-pyrazol-3-amine]	–	–
0 to 50%	0 to 50%	c1cc(Cn2ccc(NC3CC3)n2)ccn1 [Example 98, N-Cyclopropyl-1-(pyridin-4-ylmethyl)-1H-pyrazol-3-amine]	–	–
0 to 50%	0 to 50%	O=C(CCc1ccc(Cl)cc1)Nc1ccn(Cc2ccncc2)n1 [Example 106, 3-(4-Chlorophenyl)-N-{1-[(pyridin-4-yl)methyl]-1H-pyrazol-3-yl}propanamide]	–	–

The remaining lines, values behind:

Compound	inhibition at 50 µM [1]	inhibition at 50 µM [2]	IC50	other results
O=S(=O)(Cc1ccccc1)Nc1ccn(Cc2ccncc2)n1 [Example 71, 1-Phenyl-N-(1-(pyridin-4-ylmethyl)-1H-pyrazol-3-yl)methanesulfonamide]	0 to 50%	0 to 50%	–	–
CC1(C)Oc2ccc(C(=O)Nc3ccn(Cc4ccncc4)n3)cc2O1 [Example 72, 2,2-Dimethyl-N-(1-(pyridin-4-ylmethyl)-1H-pyrazol-3-yl)benzo[d][1,3]dioxole-5-carboxamide]	0 to 50%	0 to 50%	–	–
O=C(Nc1ccn(Cc2ccncc2)n1)c1ccc(O)c(O)c1 [Example 73, 3,4-Dihydroxy-N-(1-(pyridin-4-ylmethyl)-1H-pyrazol-3-yl)benzamide]	51 to 100%	–	–	–
COc1ccc(S(=O)(=O)Nc2ccn(Cc3ccncc3)n2)cc1 [Example 74, 4-Methoxy-N-(1-(pyridin-4-ylmethyl)-1H-pyrazol-3-yl)benzenesulfonamide]	–	–	1 to 10 µM	–
COc1ccc(S(=O)(=O)N(C)c2ccn(Cc3ccncc3)n2)cc1 [Example 75, 4-Methoxy-N-methyl-N-(1-(pyridin-4-ylmethyl)-1H-pyrazol-3-yl)benzenesulfonamide]	–	–	–	inhibition at 50 µM [3]: 0 to 50%; inhibition at 50 µM [4]: 0 to 50%
O=S(=O)(Nc1ccn(Cc2ccncc2)n1)c1cccc(F)c1 [Example 76, 3-Fluoro-N-(1-(pyridin-4-ylmethyl)-1H-pyrazol-3-yl)benzenesulfonamide]	0 to 50%	0 to 50%	1 to 10 µM	–
CN(c1ccn(Cc2ccncc2)n1)S(=O)(=O)c1cccc(F)c1 [Example 77, 3-Fluoro-N-methyl-N-(1-(pyridin-4-ylmethyl)-1H-pyrazol-3-yl)benzenesulfonamide]	–	–	–	inhibition at 50 µM [3]: 0 to 50%; inhibition at 50 µM [4]: 0 to 50%
Cc1cc(Cc2ccncc2)nn1CC(F)(F)F [Example 83, 4-((5-Methyl-1-(2,2,2-trifluoroethyl)-1H-pyrazol-3-yl)methyl)pyridine]	–	–	10 to 100 µM	–
Cc1cnccc1Cn1ccc(NCC(F)(F)F)n1 [Example 84, 1-((3-Methylpyridin-4-yl)methyl)-N-(2,2,2-trifluoroethyl)-1H-pyrazol-3-amine]	–	–	10 to 100 µM	–
CCNc1ccn(Cc2ccncc2)n1 [Example 85, N-Ethyl-1-(pyridin-4-ylmethyl)-1H-pyrazol-3-amine]	–	–	–	inhibition at 50 µM [3]: 0 to 50%; inhibition at 50 µM [4]: 0 to 50%
CC(=O)Nc1ccn(Cc2ccncc2)n1 [Example 87, N-(1-(Pyridin-4-ylmethyl)-1H-pyrazol-3-yl)acetamide]	–	–	–	inhibition at 50 µM [3]: 0 to 50%; inhibition at 50 µM [4]: 0 to 50%
C[C@H](c1ccncc1)n1ccc(NCC(F)(F)F)n1 [Example 89, (R)-1-(1-(Pyridin-4-yl)ethyl)-N-(2,2,2-trifluoroethyl)-1H-pyrazol-3-amine]	–	–	10 to 100 µM	–
CN(CC(F)(F)F)c1ccn(Cc2ccncc2)n1 [Example 90, N-Methyl-1-(pyridin-4-ylmethyl)-N-(2,2,2-trifluoroethyl)-1H-pyrazol-3-amine]	–	–	10 to 100 µM	–
FCCNc1ccn(Cc2ccncc2)n1 [Example 96, N-(2-Fluoroethyl)-1-(pyridin-4-ylmethyl)-1H-pyrazol-3-amine]	–	–	–	inhibition at 50 µM [3]: 51 to 100%; inhibition at 50 µM [4]: 51 to 100%
FC(F)Cc1ccn(Cc2ccncc2)n1 [Example 102, 4-{[3-(2,2-Difluoroethyl)-1H-pyrazol-1-yl]methyl}pyridine]	–	–	1 to 10 µM	–
FC(F)(F)C(F)(F)c1ccn(Cc2ccncc2)n1 [Example 103, 4-{[3-(1,1,2,2,2-Pentafluoroethyl)-1H-pyrazol-1-yl]methyl}pyridine]	–	–	1 to 10 µM	–
Cc1cnccc1Cn1ccc(CC(F)(F)F)n1 [Example 109, 3-Methyl-4-{[3-(2,2,2-trifluoroethyl)-1H-pyrazol-1-yl]methyl}pyridine]	–	–	1 to 10 µM	–
(R)-2-(1-(1-(pyridin-4-yl)ethyl)-1H-pyrazol-3-yl)acetonitrile and (S)-2-(1-(1-(pyridin-4-yl)ethyl)-1H-pyrazol-3-yl)acetonitrile [Example 28]	–	–	1 to 10 µM	–
(R)-2-((1-(1-(Pyridin-4-yl)ethyl)-1H-pyrazol-3-yl)amino)acetonitrile and (S)-2-((1-(1-(pyridin-4-yl)ethyl)-1H-pyrazol-3-yl)amino)acetonitrile [Example 6]	–	–	1 to 10 µM	–
(R)-3-Chloro-4-(1-(1-(2,2,2-trifluoroethyl)-1H-pyrazol-3-yl)ethyl)pyridine and (S)-3-Chloro-4-(1-(1-(2,2,2-trifluoroethyl)-1H-pyrazol-3-yl)ethyl)pyridine [Example 113]	–	–	1 to 10 µM	–
(R)-3-Fluoro-4-(1-(1-(2,2,2-trifluoroethyl)-1H-pyrazol-3-yl)ethyl)pyridine and (S)-3-Fluoro-4-(1-(1-(2,2,2-trifluoroethyl)-1H-pyrazol-3-yl)ethyl)pyridine [Example 78]	–	–	1 to 10 µM	–
(R)-4-(1-(1-(2,2-Difluoroethyl)-1H-pyrazol-3-yl)ethyl)pyridine and (S)-4-(1-(1-(2,2-Difluoroethyl)-1H-pyrazol-3-yl)ethyl)pyridine [Example 110]	–	–	10 to 100 µM	–
(R)-4-(1-(1-(2,2-Difluoroethyl)-1H-pyrazol-3-yl)ethyl)pyridine and (S)-4-(1-(1-(2,2-Difluoroethyl)-1H-pyrazol-3-yl)ethyl)pyridine [Example 111]	–	–	1 to 10 µM	–
(R)-4-(1-(1-(2,2-Difluoroethyl)-1H-pyrazol-3-yl)ethyl-2,2,2-d3)pyridine and (S)-4-(1-(1-(2,2-Difluoroethyl)-1H-pyrazol-3-yl)ethyl-2,2,2-d3)pyridine [Example 114]	–	–	–	Avg NAD % inhibition at 50 μM (50 μM compound, NAD peak area): * (% Inhibition 0-50%); Avg NAM % inhibition at 50 μM (50 μM compound, NAM peak area): * (% Inhibition 0-50%)
(R)-4-(1-(1-(2,2-Difluoroethyl)-1H-pyrazol-3-yl)ethyl-2,2,2-d3)pyridine and (S)-4-(1-(1-(2,2-Difluoroethyl)-1H-pyrazol-3-yl)ethyl-2,2,2-d3)pyridine [Example 114a]	–	–	1 to 10 µM	–
(S)-2-(1-(1-(Pyridin-4-yl)ethyl)-1H-pyrazol-3-yl)acetonitrile and (R)-2-(1-(1-(Pyridin-4-yl)ethyl)-1H-pyrazol-3-yl)acetonitrile [Example 27]	–	–	1 to 10 µM	–
(S)-2-((1-(1-(Pyridin-4-yl)ethyl)-1H-pyrazol-3-yl)amino)acetonitrile and (R)-2-((1-(1-(Pyridin-4-yl)ethyl)-1H-pyrazol-3-yl)amino)acetonitrile [Example 7]	–	–	1 to 10 µM	–
(S)-4-(1-(1-(2,2,2-Trifluoroethyl)-1H-pyrazol-3-yl)ethyl)pyridine and (R)-4-(1-(1-(2,2,2-Trifluoroethyl)-1H-pyrazol-3-yl)ethyl)pyridine [Example 13a]	–	–	< 1 µM	–
